Experiment [1] concerns Spodoptera littoralis. Nature of the experiment: Antifeedant activity against Spodoptera littoralis larvae fed on compound-treated disk after 18 hr by two-choice assay. Format: functional.
The test system of experiment [2] is Spodoptera littoralis. Briefly: Antifeedant activity against Spodoptera littoralis larvae fed on compound-treated disk at 100 ppm after 18 hr by two-choice assay. Format: functional.

`CC(=O)OC[C@]12[C@H](CCC[C@]13CO3)[C@@]1(C[C@@H](c3ccoc3)O[C@@H]1O)[C@H](C)[C@@H](OC(C)=O)[C@@H]2O` showed an AFC50 with Spodoptera littoralis [1] of over 1000 ppm. The AFI in the experiment on Spodoptera littoralis [2] is 5.4%.

The compound `CC(=O)OC[C@]12[C@H](CCC[C@]13CO3)[C@@]1(C[C@@H](c3ccoc3)O[C@@H]1O)[C@H](C)[C@@H](OC(C)=O)[C@@H]2OC(C)=O` displayed an AFC50 with Spodoptera littoralis [1] of over 1000 ppm. The AFI with Spodoptera littoralis [2] is given as -14.3%.

Turning to `CC(=O)O[C@@H]1O[C@H](c2ccoc2)C[C@]12[C@H](C)[C@@H](OC(C)=O)C(=O)[C@H]1[C@@H]2CCC[C@@]12CO[C@H](C)O2`, the AFC50 in the experiment with Spodoptera littoralis [1] is listed as over 1000 ppm. Also, in the experiment on Spodoptera littoralis [2], the AFI is reported as -5.4%.

On to `CC(=O)OC[C@]12[C@H](CCC[C@]13CO3)[C@@]1(C[C@@H](c3ccoc3)O[C@@H]1O)[C@H](C)[C@@H](O)[C@@H]2OC(C)=O`, for which the AFC50 in the experiment with Spodoptera littoralis [1] came out at 39 ppm. Moreover, in the experiment with Spodoptera littoralis [2], the AFI came to 54%.

With `CC(=O)OC[C@]12[C@H](CCC[C@]13CO3)[C@@]1(C[C@@H](c3ccoc3)O[C@@H]1OC(C)=O)[C@H](C)[C@@H](OC(C)=O)[C@@H]2OC(C)=O`, the AFC50 in the experiment with Spodoptera littoralis [1] is reported as over 1000 ppm. The AFI in the experiment with Spodoptera littoralis [2] is 26.7%.

In the experiment on Spodoptera littoralis [1], `CC(=O)OC[C@]12[C@H](CCC[C@]13CO3)[C@@]1(C[C@@H](c3ccoc3)O[C@H]1OC(C)=O)[C@H](C)[C@@H](OC(C)=O)[C@@H]2O` yielded an AFC50 of over 1000 ppm. In the experiment with Spodoptera littoralis [2], the AFI is given as -21.1%.

Regarding `CC(=O)O[C@@H]1O[C@H](c2ccoc2)C[C@]12[C@H](C)[C@@H](OC(C)=O)C(=O)[C@H]1[C@@H]2CCC[C@@]12CO[C@@H](C)O2`, the AFC50 in the experiment with Spodoptera littoralis [1] is recorded as over 390 ppm. In addition, in the experiment on Spodoptera littoralis [2], the AFI stood at 34.1%.

In the experiment on Spodoptera littoralis [1], `CC(=O)OC[C@]12[C@H](CCC[C@]13CO3)[C@@]1(C[C@@H](c3ccoc3)O[C@@H]1O)[C@H](C)[C@@H](O)[C@@H]2O` came in with an AFC50 of 300 ppm. In addition, the AFI in the experiment on Spodoptera littoralis [2] is given as 30.4%.

The compound `CC(=O)OC[C@]12C(=O)[C@H](O)[C@@H](C)[C@]3(C[C@@H](c4ccoc4)O[C@H]3OC(C)=O)[C@H]1CCC[C@]21CO1` [ERIOCEPHALIN] gave an AFC50 in the experiment with Spodoptera littoralis [1] of over 1000 ppm. Further, the AFI with Spodoptera littoralis [2] amounted to 5.5%.

(Values after ChEMBL document CHEMBL3045997, “Some remarkable reactions of the diterpene eriocephalin: Neo-clerodane derivatives with insect antifeedant activity” (1994).)
